Test results published in paper PMC10794144, “A novel antibiotic class targeting the lipopolysaccharide transporter” (Nature, 2024).
Converted amounts (≈) assume the structure as drawn. Where two headings read alike, the source gives them in different places.

Tested on: A. baumannii
Test: microbe, parasite or virus in culture
Conditions: Acinetobacter baumannii, 100%
In short: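 Standard broth microdilution per CLSI; diluted 0.5 McFarland inocula in cation-adjusted Mueller-Hinton broth; visual or OD600 endpoint.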

`C[C@@H](O)[C@H]1C(=O)N2C(C(=O)O)=C(S[C@@H]3CN[C@H](C(=O)N(C)C)C3)[C@H](C)[C@H]12` [meropenem, reference compound] gave an MIC (read-out: MIC 100%, ROB08707, Study ROC004) of 32 µg/mL (≈ 83.4 µM), an MIC (read-out: MIC 100%, ROB08707, Study ROC005) of 32 µg/mL (≈ 83.4 µM) and an MIC (read-out: MIC 100%, ROB08707, Study ROC006) of 64 µg/mL (≈ 167 µM). It also gave an MIC (read-out: MIC 100%, ROB08707, Study ROC007) of 64 µg/mL (≈ 167 µM), an MIC (read-out: MIC 100%, ROB08707, Study ROC008) of 32 µg/mL (≈ 83.4 µM) and an MIC (read-out: MIC 100%, ROB08707, Study ROC009) of 32 µg/mL (≈ 83.4 µM). For the same molecule, the MIC (read-out: MIC 100%, ROB08707, Study ROC010) was 32 µg/mL (≈ 83.4 µM), the MIC (read-out: MIC 100%, ROB08707, Study ROC012) was 32 µg/mL (≈ 83.4 µM) and the MIC (read-out: MIC 100%, ROB08707, Study ROC013) was 32 µg/mL (≈ 83.4 µM). The MIC (read-out: MIC 100%, ROB08708, Study LGC277937) was greater than 64 µg/mL, the MIC (read-out: MIC 100%, ROB08708, Study LGC279800) was 32 µg/mL (≈ 83.4 µM) and the MIC (read-out: MIC 100%, ROB08708, Study LGC281440) was 16 µg/mL (≈ 41.7 µM). For the same molecule, the MIC (read-out: MIC 100%, ROB08708, Study LGC282160) was 16 µg/mL (≈ 41.7 µM), the MIC (read-out: MIC 100%, ROB08708, Study LGC282623) was 32 µg/mL (≈ 83.4 µM) and the MIC (read-out: MIC 100%, ROB08708, Study LGC283932) was 32 µg/mL (≈ 83.4 µM). It also gave an MIC (read-out: MIC 100%, ROB08708, Study LGC284200) of 32 µg/mL (≈ 83.4 µM), an MIC (read-out: MIC 100%, ROB08708, Study LGC284879) of 32 µg/mL (≈ 83.4 µM) and an MIC (read-out: MIC 100%, ROB08708, Study LGC285582) of 32 µg/mL (≈ 83.4 µM). For the same molecule, the MIC (read-out: MIC 100%, ROB08708, Study LGC286210) was 16 µg/mL (≈ 41.7 µM), the MIC (read-out: MIC 100%, ROB08708, Study LGC293598) was 16 µg/mL (≈ 41.7 µM) and the MIC (read-out: MIC 100%, ROB08708, Study LGC294355) was 16 µg/mL (≈ 41.7 µM). It also gave an MIC (read-out: MIC 100%, ROB08708, Study LGC295147) of 32 µg/mL (≈ 83.4 µM), an MIC (read-out: MIC 100%, ROB08708, Study LGC296813) of 32 µg/mL (≈ 83.4 µM) and an MIC (read-out: MIC 100%, ROB08708, Study LGC299544) of 32 µg/mL (≈ 83.4 µM). It also gave an MIC (read-out: MIC 100%, ROB08708, Study LGC301026) of 32 µg/mL (≈ 83.4 µM), an MIC (read-out: MIC 100%, ROB08708, Study LGC308175) of 64 µg/mL (≈ 167 µM) and an MIC (read-out: MIC 100%, ROB08708, Study ROC004) of 32 µg/mL (≈ 83.4 µM). The MIC (read-out: MIC 100%, ROB08708, Study ROC005) was 16 µg/mL (≈ 41.7 µM), the MIC (read-out: MIC 100%, ROB08708, Study ROC006) was 64 µg/mL (≈ 167 µM) and the MIC (read-out: MIC 100%, ROB08708, Study ROC007) was 16 µg/mL (≈ 41.7 µM). For the same molecule, the MIC (read-out: MIC 100%, ROB08708, Study ROC008) was 16 µg/mL (≈ 41.7 µM), the MIC (read-out: MIC 100%, ROB08708, Study ROC009) was 32 µg/mL (≈ 83.4 µM) and the MIC (read-out: MIC 100%, ROB08708, Study ROC010) was 16 µg/mL (≈ 41.7 µM). For the same molecule, the MIC (read-out: MIC 100%, ROB08708, Study ROC012) was 16 µg/mL (≈ 41.7 µM), the MIC (read-out: MIC 100%, ROB08708, Study ROC013) was 32 µg/mL (≈ 83.4 µM) and the MIC (read-out: MIC 100%, ROB08709, Study LGC277937) was 32 µg/mL (≈ 83.4 µM). The MIC (read-out: MIC 100%, ROB08709, Study LGC279800) was 32 µg/mL (≈ 83.4 µM), the MIC (read-out: MIC 100%, ROB08709, Study LGC281440) was 32 µg/mL (≈ 83.4 µM) and the MIC (read-out: MIC 100%, ROB08709, Study LGC282160) was 16 µg/mL (≈ 41.7 µM). It also gave an MIC (read-out: MIC 100%, ROB08709, Study LGC282623) of 32 µg/mL (≈ 83.4 µM), an MIC (read-out: MIC 100%, ROB08709, Study LGC283932) of 32 µg/mL (≈ 83.4 µM) and an MIC (read-out: MIC 100%, ROB08709, Study LGC284200) of 32 µg/mL (≈ 83.4 µM). The MIC (read-out: MIC 100%, ROB08709, Study LGC284879) was 32 µg/mL (≈ 83.4 µM), the MIC (read-out: MIC 100%, ROB08709, Study LGC285582) was 32 µg/mL (≈ 83.4 µM) and the MIC (read-out: MIC 100%, ROB08709, Study LGC286210) was 32 µg/mL (≈ 83.4 µM). It also gave an MIC (read-out: MIC 100%, ROB08709, Study LGC293598) of 32 µg/mL (≈ 83.4 µM), an MIC (read-out: MIC 100%, ROB08709, Study LGC294355) of 32 µg/mL (≈ 83.4 µM) and an MIC (read-out: MIC 100%, ROB08709, Study LGC295147) of 16 µg/mL (≈ 41.7 µM). The MIC (read-out: MIC 100%, ROB08709, Study LGC296813) was 16 µg/mL (≈ 41.7 µM), the MIC (read-out: MIC 100%, ROB08709, Study LGC299544) was 32 µg/mL (≈ 83.4 µM) and the MIC (read-out: MIC 100%, ROB08709, Study LGC301026) was 16 µg/mL (≈ 41.7 µM). It also gave an MIC (read-out: MIC 100%, ROB08709, Study LGC308175) of 32 µg/mL (≈ 83.4 µM), an MIC (read-out: MIC 100%, ROB08709, Study ROC004) of 64 µg/mL (≈ 167 µM) and an MIC (read-out: MIC 100%, ROB08709, Study ROC005) of 16 µg/mL (≈ 41.7 µM). For the same molecule, the MIC (read-out: MIC 100%, ROB08709, Study ROC006) was 64 µg/mL (≈ 167 µM), the MIC (read-out: MIC 100%, ROB08709, Study ROC007) was 16 µg/mL (≈ 41.7 µM) and the MIC (read-out: MIC 100%, ROB08709, Study ROC008) was 16 µg/mL (≈ 41.7 µM). It also gave an MIC (read-out: MIC 100%, ROB08709, Study ROC009) of 16 µg/mL (≈ 41.7 µM), an MIC (read-out: MIC 100%, ROB08709, Study ROC010) of 16 µg/mL (≈ 41.7 µM) and an MIC (read-out: MIC 100%, ROB08709, Study ROC012) of 16 µg/mL (≈ 41.7 µM). It also gave an MIC (read-out: MIC 100%, ROB08709, Study ROC013) of 32 µg/mL (≈ 83.4 µM), an MIC (read-out: MIC 100%, ROB08710, Study LGC277937) of 64 µg/mL (≈ 167 µM) and an MIC (read-out: MIC 100%, ROB08710, Study LGC279800) of 64 µg/mL (≈ 167 µM). It also gave an MIC (read-out: MIC 100%, ROB08710, Study LGC281440) of 32 µg/mL (≈ 83.4 µM), an MIC (read-out: MIC 100%, ROB08710, Study LGC282160) of 64 µg/mL (≈ 167 µM) and an MIC (read-out: MIC 100%, ROB08710, Study LGC282623) of 32 µg/mL (≈ 83.4 µM). It also gave an MIC (read-out: MIC 100%, ROB08710, Study LGC283932) of 32 µg/mL (≈ 83.4 µM), an MIC (read-out: MIC 100%, ROB08710, Study LGC284200) of 32 µg/mL (≈ 83.4 µM) and an MIC (read-out: MIC 100%, ROB08710, Study LGC284879) of 32 µg/mL (≈ 83.4 µM). It also gave an MIC (read-out: MIC 100%, ROB08710, Study LGC285582) of 32 µg/mL (≈ 83.4 µM), an MIC (read-out: MIC 100%, ROB08710, Study LGC286210) of 32 µg/mL (≈ 83.4 µM) and an MIC (read-out: MIC 100%, ROB08710, Study LGC293598) of 32 µg/mL (≈ 83.4 µM). For the same molecule, the MIC (read-out: MIC 100%, ROB08710, Study LGC294355) was 32 µg/mL (≈ 83.4 µM), the MIC (read-out: MIC 100%, ROB08710, Study LGC295147) was 64 µg/mL (≈ 167 µM) and the MIC (read-out: MIC 100%, ROB08710, Study LGC296813) was 32 µg/mL (≈ 83.4 µM). For the same molecule, the MIC (read-out: MIC 100%, ROB08710, Study LGC299544) was 64 µg/mL (≈ 167 µM), the MIC (read-out: MIC 100%, ROB08710, Study LGC301026) was 32 µg/mL (≈ 83.4 µM) and the MIC (read-out: MIC 100%, ROB08710, Study LGC308175) was 32 µg/mL (≈ 83.4 µM). For the same molecule, the MIC (read-out: MIC 100%, ROB08710, Study ROC004) was 32 µg/mL (≈ 83.4 µM), the MIC (read-out: MIC 100%, ROB08710, Study ROC005) was 32 µg/mL (≈ 83.4 µM) and the MIC (read-out: MIC 100%, ROB08710, Study ROC006) was 64 µg/mL (≈ 167 µM). For the same molecule, the MIC (read-out: MIC 100%, ROB08710, Study ROC007) was 64 µg/mL (≈ 167 µM), the MIC (read-out: MIC 100%, ROB08710, Study ROC008) was 32 µg/mL (≈ 83.4 µM) and the MIC (read-out: MIC 100%, ROB08710, Study ROC009) was 64 µg/mL (≈ 167 µM). For the same molecule, the MIC (read-out: MIC 100%, ROB08710, Study ROC010) was 32 µg/mL (≈ 83.4 µM), the MIC (read-out: MIC 100%, ROB08710, Study ROC012) was 32 µg/mL (≈ 83.4 µM) and the MIC (read-out: MIC 100%, ROB08710, Study ROC013) was 32 µg/mL (≈ 83.4 µM).
